Assay results reported in ChEMBL document CHEMBL1201862, “PubChem BioAssay data set” (2004).
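Each compound was tested at five concentrations against cells in 96-well plates for 48 hours. GI50: concentration for 50% inhibition of growth.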 Active and inactive are the calls of the source. Rule as the data show it: active = GI50 up to about 1.1 µM and inactive = higher.

Columns and labels:
Assay in all cases: NCI-60 cell line screen, 48 h
NCI-H460 = tested on: NCI-H460
SW-620 = tested on: SW-620
COLO 205 = tested on: COLO 205
HOP-62 = tested on: HOP-62
TK-10 = tested on: TK-10
BT-549 = tested on: BT-549
CCRF-CEM = tested on: CCRF-CEM
SK-MEL-2 = tested on: SK-MEL-2
U-251 = tested on: U-251
RPMI-8226 = tested on: RPMI-8226
SR = tested on: SR
UACC-62 = tested on: UACC-62
HT-29 = tested on: HT-29
KM12 = tested on: KM12
MDA-N = tested on: MDA-N
NCI-H522 = tested on: NCI-H522
SF-295 = tested on: SF-295
MDA-MB-435 = tested on: MDA-MB-435
SF-539 = tested on: SF-539
IGROV-1 = tested on: IGROV-1

Measured: GI50

O=[N+]([O-])c1nccn1CC1OC(n2ccnc2[N+](=O)[O-])C(O)C(O)C1O (stereo not drawn)
inactive: NCI-H460 > 100 µM | SW-620 > 100 µM | COLO 205 > 100 µM | HOP-62 > 100 µM | TK-10 > 100 µM | BT-549 > 100 µM | CCRF-CEM > 100 µM | SK-MEL-2 > 100 µM | U-251 > 100 µM | RPMI-8226 > 100 µM | SR > 100 µM | UACC-62 > 100 µM | HT-29 > 100 µM | KM12 > 100 µM | MDA-N > 100 µM

O=C(O)C(Cc1c[nH]c2ccccc12)N1C(=O)c2ccccc2C1=O (stereo not drawn)
inactive: NCI-H460 > 100 µM | SW-620 > 100 µM | COLO 205 > 100 µM | HOP-62 > 100 µM | TK-10 > 100 µM | NCI-H522 > 100 µM | SF-295 > 100 µM | BT-549 > 100 µM | MDA-MB-435 > 100 µM | SK-MEL-2 > 100 µM | SF-539 > 100 µM | U-251 > 100 µM | RPMI-8226 > 100 µM | IGROV-1 16.3 µM | UACC-62 > 100 µM | HT-29 > 100 µM | KM12 > 100 µM | MDA-N > 100 µM

O=C(CSc1nc2ccc(I)cc2c(=O)n1Cc1ccccc1)Nc1ccc(Br)cc1
inactive: SW-620 97.5 µM | COLO 205 59.4 µM | HOP-62 78.2 µM | NCI-H522 46.7 µM | SF-295 35.6 µM | BT-549 37.1 µM | CCRF-CEM > 100 µM | MDA-MB-435 > 100 µM | SK-MEL-2 64.1 µM | SF-539 2.32 µM | U-251 39 µM | RPMI-8226 > 100 µM | SR 11.3 µM | IGROV-1 29.2 µM | UACC-62 > 100 µM | HT-29 > 100 µM | KM12 78.7 µM

CCCCCCCCOP(=O)(O)OP(=O)(O)OCC1OC(n2ccc(N)nc2=O)C(O)C1O (stereo not drawn)
inactive: NCI-H460 > 100 µM | SW-620 > 100 µM | COLO 205 > 100 µM | HOP-62 > 100 µM | TK-10 > 100 µM | SF-295 > 100 µM | BT-549 > 100 µM | CCRF-CEM > 100 µM | MDA-MB-435 > 100 µM | SK-MEL-2 > 100 µM | SF-539 > 100 µM | U-251 > 100 µM | RPMI-8226 > 100 µM | IGROV-1 > 100 µM | UACC-62 > 100 µM | HT-29 > 100 µM | KM12 > 100 µM | MDA-N > 100 µM

c1cc2sc1CSCCSCCSC2
inactive: NCI-H460 > 100 µM | SW-620 > 100 µM | COLO 205 > 100 µM | HOP-62 > 100 µM | TK-10 > 100 µM | NCI-H522 > 100 µM | SF-295 > 100 µM | BT-549 > 100 µM | CCRF-CEM > 100 µM | MDA-MB-435 > 100 µM | SF-539 > 100 µM | U-251 > 100 µM | SR > 100 µM | IGROV-1 > 100 µM | UACC-62 > 100 µM | HT-29 > 100 µM | KM12 > 100 µM

CCOC(CN=C=S)OCC
inactive: NCI-H460 > 10 µM | SW-620 > 10 µM | COLO 205 > 10 µM | HOP-62 > 10 µM | TK-10 > 10 µM | NCI-H522 > 10 µM | SF-295 > 10 µM | CCRF-CEM 4.45 µM | MDA-MB-435 > 10 µM | SK-MEL-2 > 10 µM | SF-539 > 10 µM | U-251 > 10 µM | RPMI-8226 3.77 µM | SR 2.52 µM | IGROV-1 > 10 µM | UACC-62 > 10 µM | HT-29 > 10 µM | KM12 > 10 µM | MDA-N > 10 µM

Cc1coc2c1[C@@H](O)[C@@]1(C)[C@H](CCC[C@@H]1C)C2
inactive: NCI-H460 45.5 µM | SW-620 37.8 µM | COLO 205 22.6 µM | HOP-62 40.5 µM | TK-10 > 100 µM | NCI-H522 25.3 µM | SF-295 45 µM | CCRF-CEM 37.6 µM | MDA-MB-435 15.1 µM | SF-539 21.5 µM | RPMI-8226 31.8 µM | SR 21.6 µM | IGROV-1 54.6 µM | UACC-62 56.2 µM | HT-29 42.8 µM | KM12 85.3 µM | MDA-N 20.7 µM

CCC(C)C(C(=O)N/N=C1/SCC(=O)N1C)C(=O)N/N=C1/SCC(=O)N1C (stereo not drawn)
inactive: NCI-H460 > 100 µM | SW-620 > 100 µM | COLO 205 > 100 µM | HOP-62 > 100 µM | TK-10 > 100 µM | NCI-H522 > 100 µM | SF-295 > 100 µM | BT-549 > 100 µM | MDA-MB-435 > 100 µM | SK-MEL-2 > 100 µM | SF-539 > 100 µM | U-251 > 100 µM | RPMI-8226 > 100 µM | IGROV-1 > 100 µM | UACC-62 > 100 µM | HT-29 > 100 µM | KM12 > 100 µM | MDA-N > 100 µM

CCCCN(CCCC)C(=C(C(Cl)=C(Cl)Cl)[N+](=O)[O-])N(CCCC)CCCC
inactive: NCI-H460 89.5 µM | COLO 205 > 100 µM | HOP-62 > 100 µM | TK-10 > 100 µM | NCI-H522 48.3 µM | SF-295 > 100 µM | BT-549 > 100 µM | MDA-MB-435 > 100 µM | SK-MEL-2 80.2 µM | SF-539 > 100 µM | U-251 45.9 µM | RPMI-8226 18.7 µM | UACC-62 87.3 µM | KM12 72.1 µM | MDA-N > 100 µM

CCN1C(=O)/C(=C\Nc2ccccc2)S/C1=N/Nc1ncc(CC(=O)Nc2ccccc2C)s1
inactive: NCI-H460 29.1 µM | SW-620 > 100 µM | COLO 205 > 100 µM | HOP-62 > 100 µM | TK-10 75.5 µM | NCI-H522 63.8 µM | SF-295 64.7 µM | CCRF-CEM 82.6 µM | MDA-MB-435 > 100 µM | SK-MEL-2 > 100 µM | SF-539 > 100 µM | U-251 60.5 µM | RPMI-8226 36.5 µM | SR 38.2 µM | IGROV-1 > 100 µM | UACC-62 83.6 µM | HT-29 33.7 µM | KM12 74 µM | MDA-N > 100 µM

COC(=O)CCC(C)[C@H]1CCC2C3C(C[C@H](OC(C)=O)[C@@]21C)[C@@]1(C)CCC2(C[C@H]1C[C@H]3OC(C)=O)OOC1(CCC(C(C)(C)C)CC1)OO2 (stereo partly drawn)
inactive: NCI-H460 5.65 µM | SW-620 12.3 µM | COLO 205 > 100 µM | HOP-62 9.73 µM | TK-10 17.7 µM | NCI-H522 21 µM | SF-295 7.53 µM | BT-549 33.3 µM | CCRF-CEM 5.5 µM | MDA-MB-435 56 µM | SK-MEL-2 > 100 µM | SF-539 68.7 µM | U-251 6.73 µM | RPMI-8226 3.91 µM | SR 4.45 µM | IGROV-1 17.1 µM | HT-29 > 100 µM | KM12 14.1 µM

CC(=O)C1C(=O)C(=O)N(c2ccc([N+](=O)[O-])cc2Cl)C1=O (stereo not drawn)
inactive: NCI-H460 > 100 µM | SW-620 > 100 µM | COLO 205 > 100 µM | HOP-62 > 100 µM | TK-10 > 100 µM | NCI-H522 > 100 µM | SF-295 > 100 µM | BT-549 > 100 µM | CCRF-CEM > 100 µM | MDA-MB-435 > 100 µM | SK-MEL-2 > 100 µM | SF-539 > 100 µM | U-251 > 100 µM | IGROV-1 > 100 µM | UACC-62 > 100 µM | HT-29 > 100 µM | KM12 > 100 µM | MDA-N > 100 µM

Oc1cc(Cc2ccccc2)c(Cc2ccccc2)cc1O
inactive: NCI-H460 > 10 µM | SW-620 > 10 µM | COLO 205 > 10 µM | HOP-62 > 10 µM | NCI-H522 > 10 µM | SF-295 > 10 µM | BT-549 > 10 µM | CCRF-CEM > 10 µM | MDA-MB-435 > 10 µM | SK-MEL-2 > 10 µM | SF-539 > 10 µM | U-251 > 10 µM | RPMI-8226 > 10 µM | IGROV-1 > 10 µM | UACC-62 > 10 µM | HT-29 > 10 µM | KM12 > 10 µM | MDA-N 1.67 µM

O=C1OC(C(O)CO)C(C(O)CO)OC1=O (stereo not drawn)
inactive: NCI-H460 > 10 µM | SW-620 > 10 µM | COLO 205 > 10 µM | HOP-62 > 10 µM | TK-10 > 10 µM | SF-295 > 10 µM | BT-549 > 10 µM | CCRF-CEM > 10 µM | MDA-MB-435 > 10 µM | SF-539 > 10 µM | U-251 > 10 µM | RPMI-8226 > 10 µM | SR > 10 µM | IGROV-1 > 10 µM | UACC-62 > 10 µM | HT-29 > 10 µM | KM12 > 10 µM

CC1NOC(NS(=O)(=O)c2ccc(/N=N/c3c(O)c(C(=O)O)cc4ccccc34)cc2)C1C (stereo not drawn)
inactive: NCI-H460 > 100 µM | SW-620 > 100 µM | COLO 205 > 100 µM | HOP-62 > 100 µM | TK-10 > 100 µM | NCI-H522 72.4 µM | SF-295 > 100 µM | BT-549 > 100 µM | CCRF-CEM > 100 µM | MDA-MB-435 > 100 µM | SK-MEL-2 > 100 µM | SF-539 > 100 µM | U-251 > 100 µM | RPMI-8226 > 100 µM | SR > 100 µM | IGROV-1 > 100 µM | UACC-62 > 100 µM | HT-29 > 100 µM | KM12 57.8 µM
